US20070111265A1, “Ligands for mineralocorticoid receptor (MR) and methods for screening for or designing MR ligands” (Van Andel Research Institute, priority 2005, published 2007)
Read-outs that look alike come from different tables or passages of the source.

Biological target: T1, wild type GR (full-length) (Homo sapiens, UniProt P04150)
T1 sequence (P04150 1-777): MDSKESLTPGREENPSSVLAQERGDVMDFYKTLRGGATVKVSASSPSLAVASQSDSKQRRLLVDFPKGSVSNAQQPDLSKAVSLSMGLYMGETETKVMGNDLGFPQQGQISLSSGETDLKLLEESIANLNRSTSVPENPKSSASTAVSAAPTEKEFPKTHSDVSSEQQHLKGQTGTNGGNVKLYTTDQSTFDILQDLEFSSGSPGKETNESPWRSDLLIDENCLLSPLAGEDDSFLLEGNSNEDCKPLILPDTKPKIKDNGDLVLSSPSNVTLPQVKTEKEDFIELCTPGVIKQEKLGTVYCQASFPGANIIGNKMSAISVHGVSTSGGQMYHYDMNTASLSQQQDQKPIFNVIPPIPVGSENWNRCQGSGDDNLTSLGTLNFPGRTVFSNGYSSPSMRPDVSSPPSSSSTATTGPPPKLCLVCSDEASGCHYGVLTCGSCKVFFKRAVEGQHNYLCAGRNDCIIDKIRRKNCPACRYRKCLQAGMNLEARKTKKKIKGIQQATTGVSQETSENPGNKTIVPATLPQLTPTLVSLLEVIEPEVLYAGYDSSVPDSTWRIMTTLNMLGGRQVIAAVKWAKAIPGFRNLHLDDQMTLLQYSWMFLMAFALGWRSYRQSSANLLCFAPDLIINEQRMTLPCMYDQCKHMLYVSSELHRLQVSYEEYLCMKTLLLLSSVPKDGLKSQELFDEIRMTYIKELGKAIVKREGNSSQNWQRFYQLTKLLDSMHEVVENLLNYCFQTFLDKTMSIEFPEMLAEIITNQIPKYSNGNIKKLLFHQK
Experiment: MMTV luciferase reporter assay in Cos-7 cells
Assay type: cell-based
Protocol: Cos-7 cells were maintained in DMEM containing 10% fetal bovine serum (FBS) and were transiently transfected using Lipofectamine 2000 (Invitrogen). […] Cells were transfected in Opti-MEM with 400 ng of MMTV-Luc reporter plasmid and 400 ng of receptor expression vector (pRS vector) encoding full-length GR and MR respectively (ATCC). […] Luciferase data were normalized to Renilla activity as an internal control.
To validate the role of the key MR pocket residues in hormone recognition, the inventors mutated S843 and L848 to the corresponding GR residues (S843P and L848Q) within the context of the full length wild type receptor. […] We also performed reverse mutations in the full length GR receptor (P637S and Q642L) and tested them in the same MMTV reporter.

EC50 (Cos-7, MMTV-Luc, read-out: EC50, activation of wild type GR): ~20 nM
EC50 (summary of FIG. 5 dose-response, read-out: affinity to GR (shown in FIG. 5)): ~10 nM
Structure (SMILES): C[C@]12C[C@H](O)[C@H]3[C@@H](CCC4=CC(=O)CC[C@@]43C)[C@@H]1CC[C@@H]2C(=O)CO [corticosterone]
